From PubChem BioAssay (NCI)
Where “and” joins values, the source holds several entries; their conditions need not be identical. Equal values may be shown once.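 Compound exposure: 48 hours, 5 concentrations, 96-well plates. GI50: concentration for 50% inhibition of growth. TGI: total growth inhibition.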

The molecules below were run on SK-MEL-2 melanoma (assay: DTP human tumour cell line panel, 48 h).

SMILES | GI50 | TGI
CC(C)(C)[Si](C)(C)OC1[C@@H](O[Si](C)(C)C(C)(C)C)[C@@H](CNC(=O)NC(=O)C(F)(F)F)O[C@H]1n1cnc2c(NC(=O)Nc3ccccc3)ncnc21 (some centres undefined) | 9.37 µM | 17.3 µM
CCOC(=O)n1cc(C2=C(c3ccc(OC)c(OC)c3)COC2=O)c2ccccc21 | 0.402 µM | > 100 µM
CC(=C(c1ccc(OCCN2CCCCC2)cc1)c1ccc(OCCN2CCCCC2)cc1)c1ccc(Cl)cc1 | 0.459 µM | 0.909 µM
C=CC(=O)Nc1cc(Nc2nccc(-c3cn(C)c4ccccc34)n2)c(OC)cc1N(C)CCN(C)C | 2.08 µM and 1.94 µM | 4.04 µM and 3.87 µM
C=C1C(=O)O[C@H]2[C@H]1CC/C(CNC(=O)c1cc3ccccc3[nH]1)=C\CC[C@@]1(C)O[C@@H]21 | 1.88 µM | 4.29 µM
Cc1cc2c(cc1C)[n+](=O)c(C(=O)c1ccccc1)c(C(F)F)n2[O-] | 21.2 µM | 78.3 µM
COc1cc2c(cc1OC)C(Cl)C(c1ccc(F)cc1)=C2Cl (centres undefined) |  | 26.5 µM
CN(C)c1ccc(/C=N/NC(=S)Nc2ccccc2)cc1 |  | > 100 µM
COc1ccc2ncnc(Nc3ccc(OCc4ccccc4)cc3)c2c1 | 9.97 µM | > 25 µM
O=C1c2c(F)c(F)c(F)c(F)c2C(=O)N1c1ccc(F)cc1F | 34.4 µM | > 100 µM
CC(C)[C@@H]1NC(=O)[C@]2(C)CSC(=N2)c2ccnc(c2)CNC(=O)C[C@@H](/C=C/CCS)OC1=O | 0.0842 µM | 0.516 µM
OC(c1cc(C(F)(F)F)nc2c(C(F)(F)F)cccc12)C1CCCCN1 (centres undefined) | 2.31 µM | 4.16 µM
COC(=O)/C=C/c1cc(OC(C)=O)c2c(c1)[C@@H](C(=O)OC)[C@H](c1ccc(OC(C)=O)c(OC(C)=O)c1)O2 | 0.268 µM | 70 µM

What follows are molecules tested on SW-620 colon (assay: DTP human tumour cell line panel, 48 h).

SMILES | GI50 [µM] | TGI
O=C1OCC2=C1C(c1cccc(Br)c1)c1cc3c(cc1N2CCO)OCCO3 (centres undefined) | 0.0527 | > 27.9 µM
COc1cc(-c2nc3sccn3c2-c2ccnc(NCCNS(=O)(=O)c3ccc(F)cc3)n2)ccc1F | 5.05 | > 100 µM
COc1cc(-c2nn(-c3cccc(NC(=O)c4ccccc4)c3)cc2-c2ccncc2)ccc1Cl | 0.451 | > 36.3 µM
Cc1cc(Nc2ccc(C)c(Cl)c2)n2nc(C(F)(F)F)nc2n1 | 30.2 | > 100 µM
COc1ccc(Cn2c(Br)c3c(c2Br)-c2nc(N)sc2CC3)cc1 | 3.1 | 11.4 µM
O=C1CSC(=S)N1/N=C/c1ccc(Cl)c([N+](=O)[O-])c1 |  | > 100 µM
CCOc1ccc(NC2=CC(=O)C(=O)c3ccccc32)cc1 |  | 3.53 µM
COc1cc2c(cc1OC)-c1cc(OC)c(OC)cc1C(CN(C)C)C2 (centres undefined) | > 10 | > 10 µM
O=C1c2ccccc2C(=O)c2c(/C=C\N3CCCCC3)ccnc21 |  | 4.48 µM
C=C1C[C@H](O)[C@H](Br)C(C)(C)[C@@]12CCC(C)=C(Cl)C2 | 0.625 | 11.3 µM
O=C(NC1CCCCC1)NS(=O)(=O)c1ccc(N2N=C3c4ccccc4CC3C2c2ccc(Cl)cc2)cc1 (centres undefined) | 10.3 | 24.3 µM
c1ccc(-c2n(Cc3ccc4ccccc4n3)cc[n+]2Cc2ccc3ccccc3c2)cc1 | 1.91 | 7.4 µM
C[C@@H]1CC[C@H]2C(C)(C)[C@H]3C[C@@]12CC[C@@]3(C)O |  | > 100 µM
CC(C)(C)[Si](C)(C)OC1[C@@H](O[Si](C)(C)C(C)(C)C)[C@@H](CNC(=O)NC(=O)C(F)(F)F)O[C@H]1n1cnc2c(NC(=O)Nc3ccccc3)ncnc21 (some centres undefined) | 7.53 | 15.7 µM
CCOC(=O)n1cc(C2=C(c3ccc(OC)c(OC)c3)COC2=O)c2ccccc21 | 0.0417 | > 100 µM
CC(=C(c1ccc(OCCN2CCCCC2)cc1)c1ccc(OCCN2CCCCC2)cc1)c1ccc(Cl)cc1 | 0.408 | 0.794 µM
C=CC(=O)Nc1cc(Nc2nccc(-c3cn(C)c4ccccc34)n2)c(OC)cc1N(C)CCN(C)C | 1.83 | 3.76 µM and 4.43 µM
C=C1C(=O)O[C@H]2[C@H]1CC/C(CNC(=O)c1cc3ccccc3[nH]1)=C\CC[C@@]1(C)O[C@@H]21 | 0.523 | 2.01 µM
Cc1cc2c(cc1C)[n+](=O)c(C(=O)c1ccccc1)c(C(F)F)n2[O-] | 21.2 | > 100 µM
COc1cc2c(cc1OC)C(Cl)C(c1ccc(F)cc1)=C2Cl (centres undefined) |  | 30.4 µM
CN(C)c1ccc(/C=N/NC(=S)Nc2ccccc2)cc1 |  | > 100 µM
COc1ccc2ncnc(Nc3ccc(OCc4ccccc4)cc3)c2c1 | 9.04 | > 25 µM
O=C1c2c(F)c(F)c(F)c(F)c2C(=O)N1c1ccc(F)cc1F | 2.11 | 7.22 µM
CC(C)[C@@H]1NC(=O)[C@]2(C)CSC(=N2)c2ccnc(c2)CNC(=O)C[C@@H](/C=C/CCS)OC1=O | 0.448 | 7.65 µM
OC(c1cc(C(F)(F)F)nc2c(C(F)(F)F)cccc12)C1CCCCN1 (centres undefined) | 1.85 | 3.46 µM
COC(=O)/C=C/c1cc(OC(C)=O)c2c(c1)[C@@H](C(=O)OC)[C@H](c1ccc(OC(C)=O)c(OC(C)=O)c1)O2 | 0.0418 | > 100 µM

These molecules were tested on ACHN renal (assay: DTP human tumour cell line panel, 48 h).

SMILES | GI50 | TGI
O=C1OCC2=C1C(c1cccc(Br)c1)c1cc3c(cc1N2CCO)OCCO3 (centres undefined) | 0.103 µM | > 34 µM
COc1cc(-c2nc3sccn3c2-c2ccnc(NCCNS(=O)(=O)c3ccc(F)cc3)n2)ccc1F | 1.53 µM | > 100 µM
COc1cc(-c2nn(-c3cccc(NC(=O)c4ccccc4)c3)cc2-c2ccncc2)ccc1Cl | 0.72 µM | > 100 µM
Cc1cc(Nc2ccc(C)c(Cl)c2)n2nc(C(F)(F)F)nc2n1 | 16.3 µM | 35.9 µM
COc1ccc(Cn2c(Br)c3c(c2Br)-c2nc(N)sc2CC3)cc1 | 3.22 µM | 12 µM
O=C1CSC(=S)N1/N=C/c1ccc(Cl)c([N+](=O)[O-])c1 |  | 45.6 µM
CCOc1ccc(NC2=CC(=O)C(=O)c3ccccc32)cc1 |  | 5.74 µM
COc1cc2c(cc1OC)-c1cc(OC)c(OC)cc1C(CN(C)C)C2 (centres undefined) | > 10 µM | > 10 µM
O=C1c2ccccc2C(=O)c2c(/C=C\N3CCCCC3)ccnc21 |  | 21.1 µM
C=C1C[C@H](O)[C@H](Br)C(C)(C)[C@@]12CCC(C)=C(Cl)C2 | 0.369 µM | 10.7 µM
O=C(NC1CCCCC1)NS(=O)(=O)c1ccc(N2N=C3c4ccccc4CC3C2c2ccc(Cl)cc2)cc1 (centres undefined) | 13.4 µM | 31.9 µM
c1ccc(-c2n(Cc3ccc4ccccc4n3)cc[n+]2Cc2ccc3ccccc3c2)cc1 | 3.35 µM | 11.4 µM
C[C@@H]1CC[C@H]2C(C)(C)[C@H]3C[C@@]12CC[C@@]3(C)O |  | > 100 µM
CC(C)(C)[Si](C)(C)OC1[C@@H](O[Si](C)(C)C(C)(C)C)[C@@H](CNC(=O)NC(=O)C(F)(F)F)O[C@H]1n1cnc2c(NC(=O)Nc3ccccc3)ncnc21 (some centres undefined) | 5.54 µM | 11.5 µM
CCOC(=O)n1cc(C2=C(c3ccc(OC)c(OC)c3)COC2=O)c2ccccc21 | 0.0615 µM | > 73.1 µM
CC(=C(c1ccc(OCCN2CCCCC2)cc1)c1ccc(OCCN2CCCCC2)cc1)c1ccc(Cl)cc1 | 0.434 µM | 0.779 µM
C=CC(=O)Nc1cc(Nc2nccc(-c3cn(C)c4ccccc34)n2)c(OC)cc1N(C)CCN(C)C | 0.272 µM and 0.479 µM | 1.95 µM and 1.88 µM
C=C1C(=O)O[C@H]2[C@H]1CC/C(CNC(=O)c1cc3ccccc3[nH]1)=C\CC[C@@]1(C)O[C@@H]21 | 1.26 µM | 3.07 µM
Cc1cc2c(cc1C)[n+](=O)c(C(=O)c1ccccc1)c(C(F)F)n2[O-] | 18 µM | > 100 µM
COc1cc2c(cc1OC)C(Cl)C(c1ccc(F)cc1)=C2Cl (centres undefined) |  | 26.1 µM
CN(C)c1ccc(/C=N/NC(=S)Nc2ccccc2)cc1 |  | > 100 µM
COc1ccc2ncnc(Nc3ccc(OCc4ccccc4)cc3)c2c1 | 5.88 µM | > 25 µM
O=C1c2c(F)c(F)c(F)c(F)c2C(=O)N1c1ccc(F)cc1F | 10.1 µM | 23 µM
CC(C)[C@@H]1NC(=O)[C@]2(C)CSC(=N2)c2ccnc(c2)CNC(=O)C[C@@H](/C=C/CCS)OC1=O | 2.46 µM | 14.9 µM
OC(c1cc(C(F)(F)F)nc2c(C(F)(F)F)cccc12)C1CCCCN1 (centres undefined) | 2.69 µM | 7.05 µM
